Data reported in ChEMBL document CHEMBL2407070, “Bioactive compounds from the roots of Strophioblachia fimbricalyx” (J Nat Prod, 2013).

How the values were obtained:
NCI-H187 [1] = experiment: Cytotoxicity against human NCI-H187 cells by SRB assay; assay type: functional, cell-based
KB = experiment: Cytotoxicity against human KB cells by SRB assay; assay type: functional, cell-based
Plasmodium falciparum = experiment: Antiplasmodial activity against Plasmodium falciparum K1 after 42 hrs by microdilution method; assay type: functional, organism-based; conditions: K1, 42 h
MCF7 = experiment: cells; conditions: Homo sapiens
Description: Cytotoxicity against human MCF7 cells by SRB assay

Vero = experiment: Cytotoxicity against african green monkey Vero cells by SRB assay; assay type: functional, cell-based; conditions: Chlorocebus sabaeus
NCI-H187 [2] = experiment: Cytotoxicity against human NCI-H187 cells; assay type: functional, cell-based

Structure (SMILES) | IC50 (Plasmodium falciparum) [µM] | IC50 (MCF7) [µM] | IC50 (NCI-H187 [1]) [µM] | IC50 (KB) [µM] | IC50 (Vero) [µM] | IC50 (NCI-H187 [2]) [µM]
COc1cc2c3c(cc(O)c2cc1C)C(C)(C)C(=O)[C@]1(OC)Oc2c(cc4c(cc(OC)c5cc(C)c(OC)cc54)c2C)O[C@H]31 | > 10 | > 10 | > 10 | > 10 | – | –
COc1cc2c3c(cc(OC)c2cc1C)C(C)(O)OC3=O (stereo not given) | > 10 | > 10 | > 10 | > 10 | – | –
COC1=Cc2c(cc(OC3=C4C(=CC(=O)C4(C)C)c4cc(OC)c(C)cc4C3=O)c3cc(C)c(OC)cc23)C(C)(C)C1=O | 2.9 | > 10 | – | > 10 | > 10 | 8.3
C[C@H]1[C@@H](O)O[C@@H]2O[C@@]3(C)CC[C@H]4[C@H](C)CC[C@@H]1[C@@]24OO3 [ARTENIMOL] | 0.0025 | – | – | – | – | –
COc1cccc2c1C(=O)c1c(O)c3c(c(O)c1C2=O)C[C@@](O)(C(=O)CO)C[C@@H]3O[C@H]1C[C@H](N)[C@H](O)[C@H](C)O1 [DOXORUBICIN] | – | – | 0.14 | 0.56 | – | –
Cc1c2ccncc2c(C)c2c1[nH]c1ccccc12 [ELLIPTECINE] | – | – | 1.16 | 1.19 | 1.19 | –

Second part, led by results:

IC50 (Plasmodium falciparum) [µM] | IC50 (MCF7) [µM] | Structure (SMILES) | IC50 (NCI-H187 [1]) [µM] | IC50 (KB) [µM] | IC50 (Vero) [µM] | IC50 (NCI-H187 [2]) [µM]
> 10 | > 10 | COc1cc2c3c(cc(O)c2cc1C)C(C)(C)C(=O)[C@@]1(OC)Oc2c(cc4c(cc(OC)c5cc(C)c(OC)cc54)c2C)O[C@H]31 | > 10 | > 10 | – | –
3.9 | > 10 | COc1cc2c3c(cc(O)c2cc1C)C(C)(C)C(=O)OC3=O | 5.7 | > 10 | > 10 | –
0.0193 | > 10 | COC1=C2C(=CC(=O)C(O)=C2C)c2cc(OC)c(C)cc2C1=O | > 10 | > 10 | > 10 | –
0.031 | – | O[C@@H](c1cc(C(F)(F)F)nc2c(C(F)(F)F)cccc12)[C@H]1CCCCN1 (relative stereo) [(S,R)-MEFLOQUINE] | – | – | – | –
– | 5.19 | CC/C(=C(\c1ccccc1)c1ccc(OCCN(C)C)cc1)c1ccccc1 [TAMOXIFEN] | – | – | – | –
